The source made the active and inactive calls.
Columns and labels:
[1] = target: Dual specificity mitogen-activated protein kinase kinase 1 (Homo sapiens, UniProt Q02750)
[2] = target: Serine/threonine-protein kinase 24 (Homo sapiens, UniProt Q9Y6E0)
[3] = target: Dual specificity testis-specific protein kinase 1 (Homo sapiens, UniProt Q15569)
[4] = target: T1, Thyroid hormone receptor-associated protein 3 (Homo sapiens, UniProt Q9Y2W1)
T1 sequence (Q9Y2W1 whole entry): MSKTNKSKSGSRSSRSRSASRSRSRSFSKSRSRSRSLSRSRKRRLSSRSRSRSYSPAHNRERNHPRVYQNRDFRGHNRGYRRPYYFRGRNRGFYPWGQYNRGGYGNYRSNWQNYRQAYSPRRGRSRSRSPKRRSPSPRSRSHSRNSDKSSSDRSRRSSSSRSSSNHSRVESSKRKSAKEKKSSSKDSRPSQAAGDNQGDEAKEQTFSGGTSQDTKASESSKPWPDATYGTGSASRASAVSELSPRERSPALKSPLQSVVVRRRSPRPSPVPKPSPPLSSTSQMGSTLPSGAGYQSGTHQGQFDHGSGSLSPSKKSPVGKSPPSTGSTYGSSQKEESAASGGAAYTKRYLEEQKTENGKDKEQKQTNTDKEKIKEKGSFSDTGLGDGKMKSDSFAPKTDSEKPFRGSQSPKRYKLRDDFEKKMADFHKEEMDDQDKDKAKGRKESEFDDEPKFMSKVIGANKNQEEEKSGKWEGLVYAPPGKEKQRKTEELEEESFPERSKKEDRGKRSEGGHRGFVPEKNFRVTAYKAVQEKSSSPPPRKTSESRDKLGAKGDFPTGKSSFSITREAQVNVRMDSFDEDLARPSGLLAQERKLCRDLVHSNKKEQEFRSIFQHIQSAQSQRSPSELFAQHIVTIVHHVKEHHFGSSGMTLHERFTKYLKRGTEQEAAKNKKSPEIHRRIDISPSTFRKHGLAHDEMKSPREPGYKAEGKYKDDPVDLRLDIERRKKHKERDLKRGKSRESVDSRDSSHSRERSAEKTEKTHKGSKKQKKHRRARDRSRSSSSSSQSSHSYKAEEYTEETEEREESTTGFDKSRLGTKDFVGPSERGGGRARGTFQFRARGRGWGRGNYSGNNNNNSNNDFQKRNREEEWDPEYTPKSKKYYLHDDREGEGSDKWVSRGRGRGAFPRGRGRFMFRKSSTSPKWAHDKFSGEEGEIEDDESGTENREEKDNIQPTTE

[5] = target: T2, Dual specificity protein kinase TTK (Homo sapiens, UniProt P33981)
T2 sequence (P33981 whole entry): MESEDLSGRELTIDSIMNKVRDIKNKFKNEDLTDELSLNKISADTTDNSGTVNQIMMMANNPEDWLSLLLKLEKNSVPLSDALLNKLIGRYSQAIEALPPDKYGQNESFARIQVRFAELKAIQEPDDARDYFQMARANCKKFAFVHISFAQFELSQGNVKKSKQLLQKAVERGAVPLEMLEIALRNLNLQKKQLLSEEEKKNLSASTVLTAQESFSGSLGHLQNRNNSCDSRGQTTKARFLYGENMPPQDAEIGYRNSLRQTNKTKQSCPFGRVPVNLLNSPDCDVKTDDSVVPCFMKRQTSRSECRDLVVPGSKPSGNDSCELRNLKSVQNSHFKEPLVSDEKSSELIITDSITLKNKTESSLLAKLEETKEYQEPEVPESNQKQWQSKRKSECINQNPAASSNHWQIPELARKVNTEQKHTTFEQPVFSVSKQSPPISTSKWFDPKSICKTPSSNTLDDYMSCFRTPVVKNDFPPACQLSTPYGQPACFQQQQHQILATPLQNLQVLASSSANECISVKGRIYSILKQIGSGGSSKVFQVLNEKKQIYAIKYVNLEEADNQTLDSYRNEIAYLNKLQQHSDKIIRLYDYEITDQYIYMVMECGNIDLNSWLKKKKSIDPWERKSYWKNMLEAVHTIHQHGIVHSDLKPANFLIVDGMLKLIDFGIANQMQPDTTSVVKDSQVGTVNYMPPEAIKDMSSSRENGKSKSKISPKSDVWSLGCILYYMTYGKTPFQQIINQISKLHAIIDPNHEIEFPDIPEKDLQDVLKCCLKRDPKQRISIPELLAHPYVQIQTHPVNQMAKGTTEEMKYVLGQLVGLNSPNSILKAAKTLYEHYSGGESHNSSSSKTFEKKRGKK

[6] = target: Dual specificity protein kinase CLK4 (Homo sapiens, UniProt Q9HAZ1)
Sequence of Dual specificity protein kinase CLK4 (Q9HAZ1 whole entry): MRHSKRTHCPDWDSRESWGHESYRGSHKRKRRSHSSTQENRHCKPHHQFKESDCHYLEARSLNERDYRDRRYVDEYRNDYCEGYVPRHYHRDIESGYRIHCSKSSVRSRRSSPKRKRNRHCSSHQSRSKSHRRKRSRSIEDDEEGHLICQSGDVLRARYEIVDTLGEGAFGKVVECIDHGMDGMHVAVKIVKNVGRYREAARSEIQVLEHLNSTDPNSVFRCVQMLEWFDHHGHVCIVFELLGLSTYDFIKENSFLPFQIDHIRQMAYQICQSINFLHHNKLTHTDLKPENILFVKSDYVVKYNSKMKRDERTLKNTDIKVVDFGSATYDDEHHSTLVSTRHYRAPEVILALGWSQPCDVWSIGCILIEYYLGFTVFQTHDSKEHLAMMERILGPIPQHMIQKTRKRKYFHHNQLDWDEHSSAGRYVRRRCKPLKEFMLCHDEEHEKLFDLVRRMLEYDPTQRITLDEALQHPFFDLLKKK
Also: in the data inactive means no Kd found up to 30 µM.

Sequence of Dual specificity testis-specific protein kinase 1 (Q15569 whole entry): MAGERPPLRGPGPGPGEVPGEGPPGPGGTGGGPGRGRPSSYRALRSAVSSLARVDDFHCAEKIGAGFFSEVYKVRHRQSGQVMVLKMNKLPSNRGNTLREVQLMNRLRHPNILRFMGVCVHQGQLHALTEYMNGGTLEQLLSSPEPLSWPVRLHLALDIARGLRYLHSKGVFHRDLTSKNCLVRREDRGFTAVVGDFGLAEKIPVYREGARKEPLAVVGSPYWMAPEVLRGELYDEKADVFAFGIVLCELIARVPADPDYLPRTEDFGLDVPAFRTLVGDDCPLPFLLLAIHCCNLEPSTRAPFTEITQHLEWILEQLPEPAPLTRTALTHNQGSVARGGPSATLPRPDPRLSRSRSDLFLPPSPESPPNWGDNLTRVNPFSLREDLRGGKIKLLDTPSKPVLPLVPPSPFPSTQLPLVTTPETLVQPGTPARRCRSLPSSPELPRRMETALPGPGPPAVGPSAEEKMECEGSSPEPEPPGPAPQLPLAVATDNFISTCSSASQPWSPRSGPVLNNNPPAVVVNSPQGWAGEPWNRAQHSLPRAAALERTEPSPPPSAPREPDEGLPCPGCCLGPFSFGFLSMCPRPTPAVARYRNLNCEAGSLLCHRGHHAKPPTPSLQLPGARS
Sequence of Serine/threonine-protein kinase 24 (Q9Y6E0 whole entry): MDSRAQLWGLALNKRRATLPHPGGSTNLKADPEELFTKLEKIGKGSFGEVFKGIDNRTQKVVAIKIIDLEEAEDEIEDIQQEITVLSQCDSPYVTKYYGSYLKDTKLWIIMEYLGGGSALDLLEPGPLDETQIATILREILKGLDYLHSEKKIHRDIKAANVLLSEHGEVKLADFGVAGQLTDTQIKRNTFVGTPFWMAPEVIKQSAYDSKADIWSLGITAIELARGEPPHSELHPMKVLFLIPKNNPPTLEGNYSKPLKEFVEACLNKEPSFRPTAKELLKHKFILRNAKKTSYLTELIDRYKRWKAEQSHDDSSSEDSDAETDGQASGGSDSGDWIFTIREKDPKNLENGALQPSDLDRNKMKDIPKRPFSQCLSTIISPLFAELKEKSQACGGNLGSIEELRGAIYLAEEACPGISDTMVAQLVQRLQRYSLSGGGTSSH
Sequence of Dual specificity mitogen-activated protein kinase kinase 1 (Q02750 whole entry): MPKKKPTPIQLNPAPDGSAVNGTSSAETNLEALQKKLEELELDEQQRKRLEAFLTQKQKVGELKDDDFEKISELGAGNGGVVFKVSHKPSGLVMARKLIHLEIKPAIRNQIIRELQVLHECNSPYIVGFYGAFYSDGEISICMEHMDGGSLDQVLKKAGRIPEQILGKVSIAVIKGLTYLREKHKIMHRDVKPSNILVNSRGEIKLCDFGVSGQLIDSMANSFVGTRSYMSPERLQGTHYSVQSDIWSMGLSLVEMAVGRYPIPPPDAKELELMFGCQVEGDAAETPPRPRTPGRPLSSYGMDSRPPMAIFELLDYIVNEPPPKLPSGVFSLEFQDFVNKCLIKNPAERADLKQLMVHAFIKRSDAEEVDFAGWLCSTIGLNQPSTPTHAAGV

SMILES	Kd [1]	Kd [2]	Kd [3]	Kd [4]	Kd [5]	Kd [6]
Cc1c(NC(=O)OC[C@@H]2COCCN2)cn2ncnc(Nc3ccc4c(cnn4Cc4cccc(F)c4)c3)c12 [AC-480]	> 30 µM (inactive)	> 30 µM (inactive)	> 30 µM (inactive)	> 30 µM (inactive)	> 30 µM (inactive)	
C[C@]1(O)C[C@@H](c2nc(-c3ccc4ccc(-c5ccccc5)nc4c3)c3c(N)nccn32)C1 [LINSITINIB]			> 30 µM (inactive)	> 30 µM (inactive)	> 30 µM (inactive)	
CNC(=O)c1cc(COc2nnc(Nc3ccc(Cl)cc3)c3ccoc23)ccn1 [TELATINIB]	> 30 µM (inactive)	> 30 µM (inactive)	> 30 µM (inactive)		> 30 µM (inactive)	
COc1cc(F)c(F)c(Nc2ccc(I)cc2F)c1NS(=O)(=O)C1(C[C@H](O)CO)CC1 [REFAMETINIB]			> 30 µM (inactive)	> 30 µM (inactive)		> 30 µM (inactive)
CN1CCN(c2nc(C3=C(c4c[nH]c5ccccc45)C(=O)NC3=O)c3ccccc3n2)CC1 [SOTRASTAURIN]	> 30 µM (inactive)	> 30 µM (inactive)	> 30 µM (inactive)		> 30 µM (inactive)	> 30 µM (inactive)
O[C@H]1CC[C@H](Nc2ncc3nc(Nc4c(F)cc(F)cc4F)n([C@H]4CCOC4)c3n2)CC1 [TANZISERTIB]	> 30 µM (inactive)	> 30 µM (inactive)	> 30 µM (inactive)	> 30 µM (inactive)	> 30 µM (inactive)	> 30 µM (inactive)
CNC(=O)c1ccc(Nc2ncc(C(F)(F)F)c(NCc3nccnc3N(C)S(C)(=O)=O)n2)cc1 [DEFACTINIB]	> 30 µM (inactive)	> 30 µM (inactive)	> 30 µM (inactive)	> 30 µM (inactive)	> 30 µM (inactive)	
COc1cc2c(N3CCN(C(=O)Nc4ccc(OC(C)C)cc4)CC3)ncnc2cc1OCCCN1CCCCC1 [TANDUTINIB]				> 30 µM (inactive)		
CN(C)C/C=C/C(=O)Nc1cc2c(Nc3ccc(F)c(Cl)c3)ncnc2cc1O[C@H]1CCOC1 [AFATINIB]				> 30 µM (inactive)		
CCc1nc(C(N)=O)c(Nc2ccc(N3CCC(N4CCN(C)CC4)CC3)c(OC)c2)nc1NC1CCOCC1 [GILTERITINIB]		0.23 µM	> 30 µM (inactive)	> 30 µM (inactive)	> 30 µM (inactive)	> 30 µM (inactive)
Cc1cc(-c2cc(OC(=O)c3ccccc3)ccc2Cl)cc2nnc(Nc3ccc(OCCN4CCCC4)cc3)nc12 [TG100-801]	> 30 µM (inactive)		> 30 µM (inactive)	> 30 µM (inactive)	> 30 µM (inactive)	
CCN1CCN(Cc2ccc(Nc3ncc(F)c(-c4cc(F)c5nc(C)n(C(C)C)c5c4)n3)nc2)CC1 [ABEMACICLIB]	> 30 µM (inactive)	> 30 µM (inactive)	> 30 µM (inactive)	> 30 µM (inactive)	> 30 µM (inactive)	0.013 µM
FC(F)(F)c1ccc(CNc2ccc(Cc3c[nH]c4ncc(Cl)cc34)cn2)cn1 [PEXIDARTINIB]	> 30 µM (inactive)	> 30 µM (inactive)	> 30 µM (inactive)		> 30 µM (inactive)	> 30 µM (inactive)
O=c1[nH]c([C@@H]2CCCN2)nc2c1oc1ccc(Cl)cc12	> 30 µM (inactive)	> 30 µM (inactive)				
C=CC(=O)Nc1cccc(Nc2nc(Nc3ccc(N4CCN(C(C)=O)CC4)cc3OC)ncc2C(F)(F)F)c1 [ROCILETINIB]	> 30 µM (inactive)		> 30 µM (inactive)			> 30 µM (inactive)
CC[C@@](C)(Nc1ccnc(-c2c[nH]c3ncccc23)n1)C(=O)NCC(F)(F)F [DECERNOTINIB]	> 30 µM (inactive)	> 30 µM (inactive)	> 30 µM (inactive)			
O=C(NOC[C@H](O)CO)c1ccc(F)c(F)c1Nc1ccc(I)cc1F [MIRDAMETINIB]		> 30 µM (inactive)	> 30 µM (inactive)	> 30 µM (inactive)	> 30 µM (inactive)	> 30 µM (inactive)
C[C@@H]1COC(Nc2ccc3ncnc(Nc4ccc(OCc5nccs5)c(Cl)c4)c3c2)=N1 [VARLITINIB]	> 30 µM (inactive)	> 30 µM (inactive)	> 30 µM (inactive)	> 30 µM (inactive)	> 30 µM (inactive)	> 30 µM (inactive)
C=CCN(/C=C1/C(=O)O[C@H](COC)[C@@]2(C)C1=C(O)C(=O)C1=C2[C@H](OC(C)=O)C[C@]2(C)C(=O)CC[C@@H]12)CC=C [SONOLISIB]	> 30 µM (inactive)	> 30 µM (inactive)	> 30 µM (inactive)	> 30 µM (inactive)		
CCN(CCCOc1ccc2c(Nc3cc(CC(=O)Nc4cccc(F)c4)n[nH]3)ncnc2c1)CCOP(=O)(O)O [BARASERTIB]		> 30 µM (inactive)	> 30 µM (inactive)	> 30 µM (inactive)		
O=C(O)c1ccc2c(c1)nc(Nc1cccc(Cl)c1)c1ccncc12 [SILMITASERTIB]	> 30 µM (inactive)	> 30 µM (inactive)	> 30 µM (inactive)	> 30 µM (inactive)	> 30 µM (inactive)	> 30 µM (inactive)

More lines, now with the values ahead:

Kd [1]	Kd [2]	Kd [3]	Kd [4]	Kd [5]	Kd [6]	SMILES
> 30 µM (inactive)	> 30 µM (inactive)	> 30 µM (inactive)		> 30 µM (inactive)		COc1cccc(Nc2ncnn3ccc(CN4CC[C@@H](N)[C@H](O)C4)c23)c1 [BMS-690514]
> 30 µM (inactive)	> 30 µM (inactive)	> 30 µM (inactive)			> 30 µM (inactive)	Cc1cc(C(=O)Nc2cc(Oc3ccc4nc(NC(=O)C5CC5)cn4n3)ccc2C)n(C)n1 [TAK-593]
0.021 µM (active)	> 30 µM (inactive)	> 30 µM (inactive)	> 30 µM (inactive)	> 30 µM (inactive)		Cn1c(=O)c(F)c(Nc2ccc(I)cc2F)c2c(=O)n(C[C@@H](O)CO)cnc21 [TAK-733]
> 30 µM (inactive)	> 30 µM (inactive)	> 30 µM (inactive)	> 30 µM (inactive)	> 30 µM (inactive)	> 30 µM (inactive)	c1cc(OCCN2CCCCC2)cc(-c2n[nH]c3ccc(-c4nc[nH]n4)cc23)c1 [CC-401]
			> 30 µM (inactive)			C[C@@]1(C(=O)Nc2ccc(F)nc2)CCCN1c1nc(Nc2cc(C3CC3)n[nH]2)c2cccn2n1 [BMS-754807]
> 30 µM (inactive)						CCOc1ccn(-c2ccc(F)cc2)c(=O)c1C(=O)Nc1ccc(Oc2ccnc(N)c2Cl)c(F)c1 [BMS-777607]
> 30 µM (inactive)	> 30 µM (inactive)	> 30 µM (inactive)				CC(C)(O)CC(=O)NCCn1ccc2ncnc(Nc3ccc(Oc4cccc(C(F)(F)F)c4)c(Cl)c3)c21 [TAK-285]
> 30 µM (inactive)		> 30 µM (inactive)	> 30 µM (inactive)			COc1cc2ncnc3c2cc1OCCCCCN(C)Cc1ccc(Br)cc1N3 [JNJ-26483327]
> 30 µM (inactive)		> 30 µM (inactive)	> 30 µM (inactive)	> 30 µM (inactive)	> 30 µM (inactive)	O=C(Nc1ccc(OC(F)(F)F)cc1)c1sccc1NCc1ccnc2ccccc12 [OSI-930]
